Among the data in patent US11123355B2, “Antiviral benzyl-amine phosphodiamide compounds” (Merck Sharp & Dohme Corp., priority 2016, dated 2021) are IC50 values, retold here.

The subject of the experiment is HIV-1 (H9/IIB strain). Nature of the experiment: Multiple Round HIV-1 Infection Assay (Viking Assay) in MT4-GFP cells. The conditions noted are these: inhibition of reproductive ratio R0. Format: cell-based. The protocol: Assessing antiviral potency in a Multiple Round HIV-1 Infection Assay (Viking Assay) The antiviral activity of the tenofovir prodrugs of the Examples herein was assessed in an assay that measures the rate of replication of HIV in cell culture, termed the Viking assay (VIral KINetics in Green cells) and performed as follows. HIV-1 replication was monitored using MT4-gag-GFP clone D3 (hereafter designated MT4-GFP), which are MT-4 cells modified to harbor a GFP reporter gene, the expression of which is dependent on the HIV-1 expressed proteins tat and rev. Productive infection of an MT4-GFP cell with HIV-1 results in GFP expression approximately 24 h post-infection. MT4-GFP cells were maintained at 37° C./5% CO2/90% relative humidity in RPMI 1640 supplemented with 10/o fetal bovine serum, 100 U/ml penicillin/streptomycin, and 400 μg/ml G418 to maintain the reporter gene. For infections, MT4-GFP cells were placed in the same medium lacking G418 and infected overnight with HIV-1 (H9/IIB strain) virus at an approximate multiplicity of infection of 0.01 in the same incubation conditions. Cells were then washed and re-suspended in either RPMI 1640 supplemented with 10% or 50% normal human serum (NHS) at 1.6×10^5 cells/mL (10% NHS or 50% NHS, respectively). Compound plates were prepared by dispensing compounds dissolved in DMSO into wells of 384 well poly-D-lysine-coated plates (0.2 μl/well) using an ECHO acoustic dispenser. Each compound was tested in a 10-point serial 3-fold dilution (typical final concentrations: 8.4 μM-0.42 nM). Controls included no inhibitor (DMSO only) and a combination of three antiviral agents (efavirenz, indinavir, an in-house integrase strand transfer inhibitor at final concentrations of 4 μM each). Cells were added (50 μL/well) to compound plates and the infected cells were maintained at 37° C./5% CO2/90% relative humidity.
Infected cells were quantified at two time points, ˜48 h and ˜72 h post-infection, by counting the number of green cells in each well using an Acumen eX3 scanner. The increase in the number of green cells over ˜24 h period gives the reproductive ratio, R0, which is typically 5-15 and has been shown experimentally to be in logarithmic phase (data not shown). Inhibition of R0 is calculated for each well, and IC50s determined by non-linear 4-parameter curve fitting.

The mark [1] stands for this setting: MT4-GFP cells infected with HIV-1, 10% normal human serum, read-out: Viking, IC50 (10% NHS).
Where [2] appears, read: MT4-GFP cells infected with HIV-1, 50% normal human serum, read-out: Viking, IC50 (50% NHS).

Read-outs that look alike come from different tables or passages of the source.

One may read the IC50 as the point on the concentration scale where inhibition reaches its midpoint. For `CCCOC(=O)C(C)(C)NP(=O)(CO[C@H](C)Cn1cnc2c(N)ncnc21)N[C@@H](C)c1ccc(Cl)cc1` (stereo partly drawn) [Example 13B, propyl 2-(((R)-((((R)-1-(6-amino-9H-purin-9-yl)propan-2-yl)oxy)methyl)(((S)-1-(4-chlorophenyl)ethyl)amino)phosphoryl)ami-no)-2-methylpropanoate and propyl 2-(((S)-((((R)-1-(6-amino-9H-purin-9-yl)propan-2-yl)oxy)methyl)(((S)-1-(4-chlorophenyl)ethyl)amino)phosphoryl)ami-no)-2-methylpropanoate], the half-maximal inhibitory concentration (IC50) is, setting by setting: under setting [1], 0.073 µM; under setting [2], 0.31 µM.
On to `CCCOC(=O)C(C)(C)NP(=O)(CO[C@H](C)Cn1cnc2c(N)ncnc21)N[C@H](C)c1ccc(Cl)cc1` (stereo partly drawn) [Example 1A, propyl 2-(((R)-((((R)-1-(6-amino-9H-purin-9-yl)propan-2-yl)oxy)methyl(((R)-1-(4-chlorophenyl)ethyl)amino)phosphoryl)amino)-2-methylpropanoate and propyl 2-(((S)-((((R)-1-(6-amino-9H-purin-9-yl)propan-2-yl)oxy)methyl)(((R)-1-(4-chlorophenyl)ethyl)amino)phosphoryl)amino)-2-methylpropanoate], for which the 50% inhibitory concentration (IC50) was found to be 0.12 µM (Human immunodeficiency virus 1, MT4-GFP cells infected with HIV-1, 10% normal human serum, read-out: Viking, IC50 (10% NHS)) and 0.71 µM (Human immunodeficiency virus 1, MT4-GFP cells infected with HIV-1, 50% normal human serum, read-out: Viking, IC50 (50% NHS)).
In the case of `CCCOC(=O)C(C)(C)NP(=O)(CO[C@H](C)Cn1cnc2c(N)ncnc21)N(C)Cc1ccc(C(C)C)cc1` (stereo partly drawn) [Example 32A, propyl 2-(((R)-((((R)-1-(6-amino-9H-purin-9-yl)propan-2-yl)oxy)methyl)((4-isopropylbenzyl)(methyl)amino)phos-phoryl)amino)-2-methylpropanoate and propyl 2-(((S)-((((R)-1-(6-amino-9H-purin-9-yl)propan-2-yl)oxy)methyl)((4-isopropylbenzyl)(methyl)amino)phos-phoryl)amino)-2-methylpropanoate], the IC50 runs as follows: under setting [1], 0.0017 µM; under setting [2], 0.0067 µM.
The like results for `CCCOC(=O)C(C)(C)N[P@@](=O)(CO[C@H](C)Cn1cnc2c(N)ncnc21)N[C@@H](c1cccc(OC)c1)C(F)(F)F` [Example 28A, propyl 2-(((R)-((((R)-1-(6-amino-9H-purin-9-yl)propan-2-yl)oxy)methyl)(((S)-2,2,2-trifluoro-1-(3-methoxyphenyl)ethyl)amino)phosphoryl)a-mino)-2-methylpropanoate and propyl 2-(((S)-((((R)-1-(6-amino-9H-purin-9-yl)propan-2-yl)oxy)methyl)(((S)-2,2,2-trifluoro-1-(3-methoxyphenyl)ethyl)amino)phosphoryl)a-mino)-2-methylpropanoate] were, in that order, 0.029 µM and 0.33 µM.
In the same order, the values of `CCCOC(=O)C(C)(C)NP(=O)(CO[C@H](C)Cn1cnc2c(N)ncnc21)N[C@H](C)c1ccccc1OC` (stereo partly drawn) [Example 20A, propyl 2-(((R)-((((R)-1-(6-amino-9H-purin-9-yl)propan-2-yl)oxy)methyl)(((R)-1-(2-methoxyphenyl)ethyl)amino)phosphoryl)a-mino)-2-methylpropanoate and propyl 2-(((S)-((((R)-1-(6-amino-9H-purin-9-yl)propan-2-yl)oxy)methyl)(((R)-1-(2-methoxyphenyl)ethyl)amino)phosphoryl)a-mino)-2-methylpropanoate] are 0.061 µM and 0.59 µM.
The like results for “propyl 2-(((R)-((((R)-1-(6-amino-9H-purin- 9-yl)propan-2-yl)oxy)methyl)(((R)-1-(4- cyanophenyl)-2,2,2- trifluoroethyl)amino)phosphoryl)amino)-2- methylpropanoate and propyl 2-(((S)-((((R)-1-(6-amino-9H-purin- 9-yl)propan-2-yl)oxy)methyl)(((R)-1-(4- cyanophenyl)-2,2,2- trifluoroethyl)amino)phosphoryl)amino)-2- methylpropanoate [Example 23A]” were, in that order, 0.0061 µM and 0.037 µM.
As for “propyl 2-(((R)-((((R)-1-(6-amino-9H-purin- 9-yl)propan-2-yl)oxy)methyl)(((R)-1-(4- cyanophenyl)-2,2,2- trifluoroethyl)amino)phosphoryl)amino)-2- methylpropanoate and propyl 2-(((S)-((((R)-1-(6-amino-9H-purin- 9-yl)propan-2-yl)oxy)methyl)(((R)-1-(4- cyanophenyl)-2,2,2- trifluoroethyl)amino)phosphoryl)amino)-2- methylpropanoate [Example 23B]”, the IC50 is, setting by setting: under setting [1], 0.047 µM; under setting [2], 0.14 µM.
Consider `CCCOC(=O)C(C)(C)NP(=O)(CO[C@H](C)Cn1cnc2c(N)ncnc21)N[C@@H](C)c1ccc(C(F)(F)F)cc1` (stereo partly drawn) [Example 11B, propyl 2-(((R)-((((R)-1-(6-amino-9H-purin-9-yl)propan-2-yl)oxy)methyl)(((S)-1-(4-(trifluoromethyl)phenyl)ethyl)amino)phos-phoryl)amino)-2-methylpropanoate and propyl 2-(((S)-((((R)-1-(6-amino-9H-purin-9-yl)propan-2-yl)oxy)methyl)(((S)-1-(4-(trifluoromethyl)phenyl)ethyl)amino)phosphoryl)amino)-2-methylpropanoate], for which the IC50 under setting [1] came to 0.016 µM and the IC50 under setting [2] was 0.084 µM.
With `CCCOC(=O)C(C)(C)NP(=O)(CO[C@H](C)Cn1cnc2c(N)ncnc21)N[C@H](C)c1ccc(C#N)cc1` (stereo partly drawn) [Example 31A, propyl 2-(((R)-((((R)-1-(6-amino-9H-purin-9-yl)propan-2-yl)oxy)methyl)(((R)-1-(4-cyanophenyl)ethyl)amino)phosphoryl)ami-no)-2-methylpropanoate and propyl 2-(((S)-((((R)-1-(6-amino-9H-purin-9-yl)propan-2-yl)oxy)methyl)(((R)-1-(4-cyanophenyl)ethyl)amino)phosphoryl)ami-no)-2-methylpropanoate], the IC50 stood at 0.083 µM under setting [1] and 0.77 µM under setting [2].
For the molecule `CC(C)OC(=O)C(C)(C)N[P@@](=O)(CO[C@H](C)Cn1cnc2c(N)ncnc21)NC1(c2ccc(Cl)cc2)CC1` [Example 37A, isopropyl 2-(((R)-((((R)-1-(6-amino-9H-purin-9-yl)propan-2-yl)oxy)methyl)((1-(4-chlorophenyl)cyclopropyl)amino)phos-phoryl)amino)-2-methylpropanoate and isopropyl 2-(((S)-((((R)-1-(6-amino-9H-purin-9-yl)propan-2-yl)oxy)methyl)((1-(4-chlorophenyl)cyclopropyl)amino)phos-phoryl)amino)-2-methylpropanoate], the IC50 under setting [1] is 0.11 µM and the half-inhibitory concentration (IC50) under setting [2] was 0.72 µM.
In the case of “propyl 2-(((R)-((((R)-1-(6-amino-9H-purin- 9-yl)propan-2-yl)oxy)methyl)(((R)-1-(p- tolyl)ethyl)amino)phosphoryl)amino)-2- methylpropanoate and propyl 2-(((S)-((((R)-1-(6-amino-9H-purin- 9-yl)propan-2-yl)oxy)methyl)(((R)-1-(p- tolyl)ethyl)amino)phosphoryl)amino)-2- methylpropanoate [Example 16A]”, the IC50 was 0.083 µM under setting [1] and 0.44 µM under setting [2].
For `CCCOC(=O)C(C)(C)N[P@@](=O)(CO[C@H](C)Cn1cnc2c(N)ncnc21)N[C@@H](c1cccc(OC)c1)C(F)(F)F` [Example 28B, propyl 2-(((R)-((((R)-1-(6-amino-9H-purin-9-yl)propan-2-yl)oxy)methyl)(((S)-2,2,2-trifluoro-1-(3-methoxyphenyl)ethyl)amino)phosphoryl)a-mino)-2-methylpropanoate and propyl 2-(((S)-((((R)-1-(6-amino-9H-purin-9-yl)propan-2-yl)oxy)methyl)(((S)-2,2,2-trifluoro-1-(3-methoxyphenyl)ethyl)amino)phosphoryl)a-mino)-2-methylpropanoate], the IC50 turned out to be 0.017 µM under setting [1] and 0.12 µM under setting [2].
